Data published in ChEMBL document CHEMBL1147942, “Dual M3 antagonists-PDE4 inhibitors. Part 2: Synthesis and SAR of 3-substituted azetidinyl derivatives” (Bioorg Med Chem Lett, 2007).
Calls of active or inactive are those of the source. No cut-off for these calls is given here.

Experiments:
[1] = Dissociation constant, pKa of the compound; type: physicochemical
[2] = molecular target: T1, Phosphodiesterase 4 (Homo sapiens, UniProt P27815+Q08499+Q07343+Q08493); test: Inhibition of PDE4 in U937 cells; type: cell-based; details: u-937
[3] = molecular target: Muscarinic acetylcholine receptor M3 (Homo sapiens, UniProt P20309); test: Displacement of [3H]N-methylscopolamine from human recombinant M3 muscarinic receptor expressed in CHO cell membrane; type: cell membranes
[4] = molecular target: T1, Phosphodiesterase 4; test: Inhibition of PDE4 in U937 cells at 10 uM; type: cell-based; details: U-937
[5] = molecular target: Muscarinic acetylcholine receptor M3 (Cavia porcellus, UniProt Q8VH26); test: Activity at M3 muscarinic receptor in guinea pig assessed as effect on carbachol-induced trachea contraction
[6] = Inhibition of fMLP-induced elastase release from human PMN cells; type: functional, cell-based
[7] = molecular target: T1, Phosphodiesterase 4; test: Inhibition of PDE4 in U937 cells at high-affinity rolipram binding state; type: cell-based; details: u-937
[8] = organism: Cavia porcellus; details: Trachea
Description: Activity at PDE4 in guinea pig assessed as effect on LTD4-induced trachea contraction

[9] = organism: Mus musculus; test: Inhibition of mKC cells in BALB/c mouse at 10 mg/ml, nose-only aerosol for 15 mins; type: functional, organism-based
[10] = organism: Mus musculus; test: Inhibition of PMN cells in BALB/c mouse at 10 mg/ml, nose-only aerosol for 15 mins; type: functional, organism-based
[11] = organism: Mus musculus; test: Inhibition of BALF cells in BALB/c mouse at 10 mg/ml, nose-only aerosol for 15 mins; type: functional, organism-based

Sequence of Muscarinic acetylcholine receptor M3 (Homo sapiens, UniProt P20309) (P20309 whole entry): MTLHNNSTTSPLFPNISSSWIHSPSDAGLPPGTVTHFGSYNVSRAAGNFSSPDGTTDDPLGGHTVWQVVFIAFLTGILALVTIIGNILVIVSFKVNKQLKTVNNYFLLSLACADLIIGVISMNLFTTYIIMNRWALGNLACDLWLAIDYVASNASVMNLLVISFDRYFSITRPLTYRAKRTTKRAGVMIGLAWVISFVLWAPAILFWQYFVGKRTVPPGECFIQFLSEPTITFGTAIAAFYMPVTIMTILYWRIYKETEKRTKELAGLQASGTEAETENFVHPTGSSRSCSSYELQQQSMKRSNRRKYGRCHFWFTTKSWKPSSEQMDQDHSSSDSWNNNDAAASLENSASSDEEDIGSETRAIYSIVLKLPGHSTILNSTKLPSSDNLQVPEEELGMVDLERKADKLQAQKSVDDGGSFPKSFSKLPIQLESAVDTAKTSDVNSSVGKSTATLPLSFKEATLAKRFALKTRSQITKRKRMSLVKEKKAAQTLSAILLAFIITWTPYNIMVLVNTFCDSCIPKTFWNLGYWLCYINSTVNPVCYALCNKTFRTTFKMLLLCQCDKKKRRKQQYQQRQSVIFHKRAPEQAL
Sequence of Muscarinic acetylcholine receptor M3 (Cavia porcellus, UniProt Q8VH26) (Q8VH26 whole entry): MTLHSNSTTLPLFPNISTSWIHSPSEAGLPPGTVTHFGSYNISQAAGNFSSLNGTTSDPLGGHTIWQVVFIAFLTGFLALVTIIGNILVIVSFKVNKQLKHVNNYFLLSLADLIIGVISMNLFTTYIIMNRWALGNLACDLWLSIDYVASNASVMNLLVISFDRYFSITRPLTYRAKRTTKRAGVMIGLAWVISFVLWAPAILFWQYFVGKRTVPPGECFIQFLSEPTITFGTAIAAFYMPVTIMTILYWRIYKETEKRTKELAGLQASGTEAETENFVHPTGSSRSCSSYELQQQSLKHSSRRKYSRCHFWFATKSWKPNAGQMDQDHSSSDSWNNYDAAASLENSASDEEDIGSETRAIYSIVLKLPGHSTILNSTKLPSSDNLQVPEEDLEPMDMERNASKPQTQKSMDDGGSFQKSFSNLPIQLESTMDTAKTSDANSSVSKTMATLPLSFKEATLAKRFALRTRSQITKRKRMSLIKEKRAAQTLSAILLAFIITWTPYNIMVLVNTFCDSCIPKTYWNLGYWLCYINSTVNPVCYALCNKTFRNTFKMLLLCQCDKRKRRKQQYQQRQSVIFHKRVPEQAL

| Compound | pKa [1] | IC50 [2] | Ki [3] | also measured |
| --- | --- | --- | --- | --- |
| Cc1c(N2CCCCCC2)nc(C2CC2)nc1N1CC(=O)C1 | 6.4 | 500 nM | 631 nM |  |
| Cc1c(N2CCCCCC2)nc(C2CC2)nc1N1CCCCCC1 |  |  | 40 nM | Activity [4]: inactive |
| Cc1c(N2CCCCCC2)nc(C2CC2)nc1N1CCCC1 |  | 3200 nM | 1.3 nM |  |
| COC1CN(c2nc(C3CC3)nc(N3CCCCCC3)c2C)C1 | 6.8 | 4000 nM | 40 nM |  |
| Cc1c(N2CCCCCC2)nc(C2CC2)nc1N1CCC1 | 7.1 | 320 nM | 16 nM | Kb [5]: 1000 nM; IC50 [6]: 190 nM; Log IC50 [2]: -6.6; Log Ki [7]: -5.3 |
| Cc1c(N2CCCCCC2)nc(C2CC2)nc1N1CCCCC1 |  |  | 79 nM | Activity [4]: inactive |
| Cc1c(N2CCCCCC2)nc(C2CC2)nc1N1CC(C)(C)C1 | 7 | 5000 nM | 32 nM |  |
| Cc1c(NC2CC2)nc(C2CC2)nc1N1CCCCCC1 |  |  |  | Activity [9]: Dose-dependent effect; pD2 [8]: 6.1; Activity [10]: Dose-dependent effect; Activity [11]: Dose-dependent effect |

Second part, led by results:

| pKa [1] | IC50 [2] | Ki [3] | Compound | also measured |
| --- | --- | --- | --- | --- |
| 7.5 | 2000 nM | 13 nM | CC1CN(c2cc(N3CCCCCC3)nc(C3CC3)n2)C1 |  |
| 8 | 790 nM | 20 nM | Cc1c(N2CCCCCC2)nc(C2CC2)nc1N1CC(C)C1 |  |
| 6.9 | 200 nM | 501 nM | FC1CN(c2cc(N3CCCCCC3)nc(C3CC3)n2)C1 |  |
| 7.4 | 790 nM | 79 nM | c1c(N2CCCCCC2)nc(C2CC2)nc1N1CCC1 |  |
| 7 | 630 nM | 158 nM | Cc1c(N2CCCCCC2)nc(C2CC2)nc1N1CC(O)C1 |  |
| 6.6 | 79 nM | 200 nM | Cc1c(N2CCCCCC2)nc(C2CC2)nc1N1CC(F)C1 | IC50 [6]: 380 nM; pD2 [8]: 7.4; Log IC50 [2]: -7.3; Log Ki [7]: -6 |
| 6.4 | 1000 nM | 794 nM | Cc1c(N2CCCCCC2)nc(C2CC2)nc1N1CC(C#N)C1 |  |
